The source of these data is patent US9221784B2, “Benzo[1,3]dioxine derivatives and their use as LPAR5 antagonists” (SANOFI, priority 2012, dated 2015).

Holding throughout (assay type): cell-based
Experiment [1] concerns the target T1, LPA receptor LPAR5 (Homo sapiens, UniProt Q9H1C0). Nature of the experiment: Aggregation assay for washed human blood platelets (LPA-induced). As to conditions: reduction of the maximal aggregation, 5 minutes incubation at 37° C. The method, then:
A) Aggregation Assay for Washed Human Blood Platelets (Thrombocytes)
Whole blood was collected from healthy volunteers using 3×20 ml syringes containing each 1/10 volume of buffered citrate. The anticoagulated whole blood was transferred into 50 ml polypropylene conical tubes (30 ml per tube). The tubes were centrifuged for 10 minutes at 150×g at room temperature without using the centrifuge brake. This procedure results in a lower phase of cellular components and a supernatant (upper phase) of platelet rich plasma (PRP). The PRP phase was collected from each tube and pooled for each donor. To avoid carry over of cellular components following first centrifugation, approximately 5 ml of PRP was left in the tube. The platelet concentration was determined using a ABX Micros 60 counter. The PRP phase was transferred to a new 50 ml tube. After 10 minutes standing at room temperature, 1 μl PGI2 (1 mM in Tris-HCl/pH 8.8) and 180 μl ACD/A were added per ml PRP. The PRP was then transferred to new 10 ml tube and centrifuged for 10 minutes at 500×g. After centrifugation a cellular pellet is visible at the bottom of the tube. The supernatant was carefully discarded and the cellular pellet, consisting of human blood platelets was then dissolved in 10 ml buffer T (buffer T composition: 145 mM NaCl, 5 mM KCl, 0.1 mM MgCl2×6 H2O, 15 mM HEPES, 5.5 mM glucose, pH 7.4). Platelet concentration in this solution was determined and buffer T was added to obtain a final concentration of 3.5×10^5 platelets per ml.
After 10 minutes at room temperature, 1 μl PGI2 per ml platelet solution was added and distributed into new 10 ml tubes. After a centrifugation step, 10 minutes at 500×g, supernatant was discarded and the platelets were resuspended in buffer T to a final concentration of 3.5×10^5 platelets per ml buffer T. Before use, platelet-containing buffer equilibrated for 30 minutes at room temperature. The human platelet aggregation assay was performed in single use cuvettes using the Platelet Aggregation Profiler® (PAP-4 or -8E, BIO/DATA Corporation). For a single experiment, 320 μl of platelet solution were transferred into an assay cuvette, 20 μl of calcium citrate solution (10 mM in H2O) and 20 μl of fibrinogen solution (20 mg/ml H2O) were added. The aggregation assay was performed in the assay cuvette at 37° C. and with 1.200 rpm stirring. To determine the EC50, eight assay cuvettes were loaded as described above with different concentrations of LPA. Aggregation was measured over 6 minutes at 37° C. with 1200 rpm (revolutions per minute) stirring. Results of the assay are expressed as % activation, and are calculated using maximum aggregation (Tmax) or area under curve (AUC) of the absorbance over 6 minutes. The inhibitory effect (IC50) of the test compounds was determined as the reduction of the maximal aggregation. Test compound was added prior starting the experiment with an incubation time of the test compound of 5 minutes at 37° C. with 1200 rpm stirring. The IC50 data of the above described platelet aggregation assay using human washed platelets for exemplary compounds of the present invention are shown in Table 1.

Experiment [2] has as its target T2, LPA receptor LPAR5 (Mus musculus, UniProt Q149R9).
T2 construct: two cell lines were used with high LPAR5 expression; endogenous in cells; host or cells: BV-2 murine microglia cell line
Put plainly: FLIPR assay, intracellular Ca2+ release in murine microglia cell line BV-2. As to conditions: murine microglia cell line BV-2, LPA-stimulated Ca2+ release, test compounds added 10 minutes prior LPA. An excerpt:
(§1) B) Use of the Fluorometric Imaging Plate Reader (FLIPR) Assay for the Determination of Intracellular Ca^2+ Release in Human Mast Cell Line HMC-1 and the Murine Microglia Cell Line BV-2
(§2) The ability of the compounds of the formula I to inhibit or bind the LPA receptor LPAR5 can be assessed by determining the intracellular Ca^2+ release in human or animal cells. For the analysis of activating potential of LPA and the inhibitory effects of compounds of the formula I two cell lines were used with high LPAR5 expression, the human mast cell line HMC-1 and the murine microglia cell line BV-2 (Figures 1 and 2). For the FLIPR assay using human mast cells in a 96-well-format, HMC-1 suspension cells from flask culture were harvested, resuspended and counted. 14×10^6 HMC-1 cells were transferred into a new 50 ml tube, centrifuged for 3 minutes at 540×g. The resulting cell pellet at the bottom of the tube was resuspended with 15 ml loading buffer (loading buffer contained HBSS buffer (pH 7.4), 0.1% BSA (bovine serum albumin), 2 μM FLUO-4 dye; HBSS buffer (pH 7.4) contained 1×HBSS, 20 mM HEPES, 0.01% Pluronic F-127, 2.5 mM Probenicid).
Cells in loading buffer were incubated for 45-60 minutes at 37° C. After incubation cells were centrifuged for 3 minutes at 540×g and resuspended with 21 ml of HBSS buffer (pH 7.4). Each well of a poly-D-lysine coated 96-well-plate was filled with 150 μl cell solution, an equivalent of 100 000 cells/well. The 96-well-plate was centrifuged for 2 minutes at 100×g (without brake) prior a recovery time of 30 minutes at 37° C. After this procedure cells were stimulated with LPA (in HBSS pH 7.4 and 0.1% BSA) to determine the EC50 of LPA in HMC-1 cells. For the determination of the inhibitory effect of compounds of the formula I, test compounds were added to the cells in the 96-well-plate 10 minutes prior the addition of LPA. Results of the assay are expressed as % activation, and are calculated using maximum peak of activation (Amax). […]

Experiment [3] deals with T1, LPA receptor LPAR5. Nature of the experiment: FLIPR assay, intracellular Ca2+ release in human mast cell line HMC-1. Also noted: two cell lines were used with high LPAR5 expression; endogenous in cells; host or cells: HMC-1 human mast cell line. As to conditions: human mast cell line HMC-1, LPA-stimulated Ca2+ release, test compounds added 10 minutes prior LPA.
Source text: as §1, §2
Cells in loading buffer were incubated for 45-60 minutes at 37° C. After incubation cells were centrifuged for 3 minutes at 540×g and resuspended with 21 ml of HBSS buffer (pH 7.4). Each well of a poly-D-lysine coated 96-well-plate was filled with 150 μl cell solution, an equivalent of 100 000 cells/well. The 96-well-plate was centrifuged for 2 minutes at 100×g (without brake) prior a recovery time of 30 minutes at 37° C. After this procedure cells were stimulated with LPA (in HBSS pH 7.4 and 0.1% BSA) to determine the EC50 of LPA in HMC-1 cells. For the determination of the inhibitory effect of compounds of the formula I, test compounds were added to the cells in the 96-well-plate 10 minutes prior the addition of LPA. Results of the assay are expressed as % activation, and are calculated using maximum peak of activation (Amax). The IC50 data of the above described FLIPR assay using human mast cell line HMC-1 for exemplary compounds of the present invention are shown in Table 2. Adherent BV-2 cells were seeded onto poly-D-lysine coated 96-well-plates (100000 cells/well) the day before performing the FLIPR assay. The density of the cells in the 96-well-plate at the day of the FLIPR assay should be 90%. After aspiration of the culture media, BV-2 cells were incubated for 30 minutes at 37° C. with loading buffer and recovered in 150 μl HBSS buffer for 30 minutes at 37° C. After this procedure cells were stimulated with LPA (in HBSS pH 7.4 and 0.1% BSA) to determine the EC50 of LPA in BV-2 cells. For the determination of the inhibitory effect of compounds of the formula I, test compounds were added to the cells in the 96-well-plate 10 minutes prior the addition of LPA. The IC50 data of the above described FLIPR assay using the murine microglia cell line BV-2 for exemplary compounds of the present invention are shown in Table 3.

T1 sequence (Q9H1C0 whole entry): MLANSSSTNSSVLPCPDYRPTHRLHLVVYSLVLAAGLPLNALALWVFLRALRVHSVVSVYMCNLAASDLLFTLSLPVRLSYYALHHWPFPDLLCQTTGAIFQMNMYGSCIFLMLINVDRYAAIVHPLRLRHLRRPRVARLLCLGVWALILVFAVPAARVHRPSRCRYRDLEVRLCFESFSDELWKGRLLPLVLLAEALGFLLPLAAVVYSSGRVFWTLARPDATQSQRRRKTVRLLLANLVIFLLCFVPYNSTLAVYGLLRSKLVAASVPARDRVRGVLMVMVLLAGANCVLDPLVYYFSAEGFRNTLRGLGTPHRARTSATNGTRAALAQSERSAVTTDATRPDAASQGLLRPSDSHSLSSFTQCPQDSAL
T2 sequence (Q149R9 whole entry): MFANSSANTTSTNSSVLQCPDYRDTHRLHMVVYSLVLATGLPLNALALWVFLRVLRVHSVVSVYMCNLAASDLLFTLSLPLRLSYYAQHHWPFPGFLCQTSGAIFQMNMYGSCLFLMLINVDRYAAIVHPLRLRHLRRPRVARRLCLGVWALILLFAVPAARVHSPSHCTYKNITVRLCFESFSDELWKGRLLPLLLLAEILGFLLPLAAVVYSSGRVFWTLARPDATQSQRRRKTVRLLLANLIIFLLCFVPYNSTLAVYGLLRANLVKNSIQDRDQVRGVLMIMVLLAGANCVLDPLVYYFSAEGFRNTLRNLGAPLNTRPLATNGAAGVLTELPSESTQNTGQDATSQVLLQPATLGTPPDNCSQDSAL

Regarding `O=C(O)C1Oc2ccc(Cl)cc2C(C2CCCCC2)(C2CCCCC2)O1` (stereo not drawn) [Example 1, 6-Chloro-4,4-dicyclohexyl-4H-benzo[1,3]dioxine-2-carboxylic acid], the values for the IC50 against LPA receptor LPAR5 [1], at LPA receptor LPAR5 [2] and against LPA receptor LPAR5 [3] were 1.1 µM, 4.1 µM and 3.2 µM, respectively.
